Results taken from ChEMBL document CHEMBL6109153, “Development of Membrane-Targeting Osthole Derivatives Containing Pyridinium Quaternary Ammonium Moieties with Potent Anti-Methicillin-Resistant Staphylococcus aureus Properties” (J Med Chem, 2025).
Calls of active or inactive are those of the source. The calls are words filed in the database; no cut-off is given here.

What was measured:
Staphylococcus aureus [1] = assay: Antibacterial activity against Staphylococcus aureus ATCC 29213 incubated for 16 to 20 hrs by broth microdilution method; type: functional; conditions: time 16-20 hrs
Staphylococcus aureus [2] = assay: Antibacterial activity against methicillin-resistant Staphylococcus aureus M12 incubated for 16 to 20 hrs by broth microdilution method; type: functional; conditions: time 16-20 hrs
Staphylococcus aureus [3] = assay: Antibacterial activity against methicillin-resistant Staphylococcus aureus M14 incubated for 16 to 20 hrs by broth microdilution method; type: functional; conditions: time 16-20 hrs
Staphylococcus aureus [4] = assay: Antibacterial activity against methicillin-resistant Staphylococcus aureus M22 incubated for 16 to 20 hrs by broth microdilution method; type: functional; conditions: time 16-20 hrs
Escherichia coli = assay: Antibacterial activity against Escherichia coli ATCC 25922 incubated for 16 to 20 hrs by broth microdilution method; type: functional; conditions: time 16-20 hrs
[5] = Hemolytic activity against sheep erythrocytes; type: toxicity, cell-based, Ovis aries, Erythrocyte
Staphylococcus aureus [6] = assay: Induction of bacterial eradication in methicillin-resistant Staphylococcus aureus M11 at 4 times MIC incubated for 8 hrs by time-kill assay; type: functional, organism-based
Staphylococcus aureus [7] = assay: Induction of resistance development in Staphylococcus aureus ATCC 29213 at 0.5 times MIC measured after 20 passages by broth microdilution method; type: functional, organism-based
[8] = Cytotoxicity against human L02 cells assessed as cell survival rate at 32 times MIC incubated for 24 hrs by CCK8 assay; type: toxicity, cell-based; conditions: read-out: Survival
[9] = Toxicity in KM mouse assessed as animal death at 40 mg/kg, sc; type: organism-based; conditions: in vivo
[10] = Toxicity in KM mouse assessed as adverse reactions at <=20 mg/kg, sc; type: organism-based; conditions: in vivo
[11] = Toxicity in KM mouse assessed as abnormality in spleen at 20 mg/kg, sc by H and E staining based analysis; type: organism-based; conditions: in vivo
[12] = Toxicity in KM mouse assessed as abnormality in lung at 20 mg/kg, sc by H and E staining based analysis; type: organism-based; conditions: in vivo
[13] = Toxicity in BALB/c mouse assessed as mortality rate at 20 mg/kg, ip measured for 7 days; type: organism-based; conditions: in vivo, time 7 day, read-out: Activity
[14] = Toxicity in BALB/c mouse assessed as maximum safe dose administered intraperitoneally measured for 7 days; conditions: in vivo, route ip, time 7 day
Staphylococcus aureus [15] = assay: Antibacterial activity against methicillin-resistant Staphylococcus aureus M11 infected in BALB/c mouse model of Sepsis assessed as reduction in inflammatory cell infiltration in skin tissues at 4 to 8 mg/kg measured after 24 hrs by H and E staining based analysis; type: functional, organism-based; conditions: dose 4-8 mg/kg
Staphylococcus aureus [16] = assay: Antibacterial activity against methicillin-resistant Staphylococcus aureus M11 infected in BALB/c mouse model of Sepsis assessed as reduction in bacterial count in skin tissues at 8 mg/kg measured after 24 hrs relative to control; type: functional; design: scale not given: the % may be the effect or the level left
[17] = Toxicity in BALB/c mouse model of Sepsis infected with methicillin-resistant Staphylococcus aureus M11 assessed as pathological change in heart at 4 to 8 mg/kg measured after 24 hrs by H and E staining based analysis; type: organism-based; conditions: in vivo, dose 4-8 mg/kg
[18] = Toxicity in BALB/c mouse model of Sepsis infected with methicillin-resistant Staphylococcus aureus M11 assessed as pathological change in liver at 4 to 8 mg/kg measured after 24 hrs by H and E staining based analysis; type: organism-based; conditions: in vivo, dose 4-8 mg/kg
[19] = Toxicity in BALB/c mouse model of Sepsis infected with methicillin-resistant Staphylococcus aureus M11 assessed as lesions in liver at 4 to 8 mg/kg measured after 24 hrs by H and E staining based analysis; type: organism-based; conditions: in vivo, dose 4-8 mg/kg
[20] = Toxicity in BALB/c mouse model of Sepsis infected with methicillin-resistant Staphylococcus aureus M11 assessed as lesions in spleen at 4 to 8 mg/kg measured after 24 hrs by H and E staining based analysis; type: organism-based; conditions: in vivo, dose 4-8 mg/kg
Staphylococcus aureus [21] = assay: Depolarization of cell membrane in methicillin-resistant Staphylococcus aureus M11 assessed as increase in fluorescence intensity incubated for 30 mins by DiSC3(5) dye based analysis; type: functional, organism-based
Staphylococcus aureus [22] = assay: Induction of cell permeability in methicillin-resistant Staphylococcus aureus M11 assessed as increase in fluorescence intensity by SYTOX Green dye based analysis; type: functional, organism-based
Staphylococcus aureus [23] = assay: Disruption of cell membrane in methicillin-resistant Staphylococcus aureus M11 assessed as fold increase in DNA leakage at 4 ug/ml incubated for 4 hrs by micro-spectrophotometric analysis relative to control; type: functional; conditions: dose 4 µg/ml
Staphylococcus aureus [24] = assay: Disruption of cell membrane in methicillin-resistant Staphylococcus aureus M11 assessed as fold increase in protein leakage at 4 ug/ml incubated for 4 hrs by micro-spectrophotometric analysis relative to control; type: functional; conditions: dose 4 µg/ml
Staphylococcus aureus [25] = assay: Induction of ROS production in methicillin-resistant Staphylococcus aureus M11 incubated for 1 hr by DCFH-DA probe based analysis; type: functional, organism-based; conditions: dose <= 32.0 µg/ml
Staphylococcus aureus [26] = assay: Antibacterial activity against methicillin-resistant Staphylococcus aureus M11 up to 128 ug/ml in presence of cardiolipin incubated for 16 to 18 hrs; type: functional, organism-based; conditions: dose <= 128.0 µg/ml, time 16-18 hrs
Staphylococcus aureus [27] = assay: Antibacterial activity against methicillin-resistant Staphylococcus aureus M11 up to 128 ug/ml in presence of peptidoglycan incubated for 16 to 18 hrs; type: functional, organism-based; conditions: dose <= 128.0 µg/ml, time 16-18 hrs
Staphylococcus aureus [28] = assay: Antibacterial activity against methicillin-resistant Staphylococcus aureus M11 up to 128 ug/ml in presence of 32 ug/ml cardiolipin incubated for 16 to 18 hrs; type: functional; conditions: dose <= 128 µg/ml, time 16-18 hrs
Staphylococcus aureus [29] = assay: Antibacterial activity against methicillin-resistant Staphylococcus aureus M11 up to 128 ug/ml in presence of 32 ug/ml peptidoglycan incubated for 16 to 18 hrs; type: functional; conditions: dose <= 128 µg/ml, time 16-18 hrs
Staphylococcus aureus [30] = assay: Antibacterial activity against methicillin-resistant Staphylococcus aureus M11 assessed as fold increase in MIC up to 128 ug/ml in presence of 128 ug/ml peptidoglycan incubated for 16 to 18 hrs relative to control; type: functional; conditions: dose <= 128 µg/ml; time 16-18 hrs
[31] = Toxicity in KM mouse assessed as erythema on dorsal skin at <=30 mg/kg, sc; type: organism-based; conditions: in vivo
[32] = Toxicity in KM mouse assessed as abnormality in spleen at 30 mg/kg, sc by H and E staining based analysis; type: organism-based; conditions: in vivo
[33] = Toxicity in BALB/c mouse assessed as mortality rate at 40 mg/kg, ip measured for 7 days; type: organism-based; conditions: in vivo, time 7 day, read-out: Activity
Staphylococcus aureus [34] = assay: Antibacterial activity against methicillin-resistant Staphylococcus aureus M11 infected in BALB/c mouse model of Sepsis assessed as vacuolar degeneration in renal epithelial cells at 20 mg/kg, ip measured after 48 hrs; type: functional, organism-based
Staphylococcus aureus [35] = assay: Antibacterial activity against methicillin-resistant Staphylococcus aureus M11 infected in BALB/c mouse model of Sepsis assessed as reduction in bacterial load in liver at 10 mg/kg, ip measured after 48 hrs; type: functional
Staphylococcus aureus [36] = assay: Antibacterial activity against methicillin-resistant Staphylococcus aureus M11 infected in BALB/c mouse model of Sepsis assessed as reduction in bacterial load in kidney at 20 mg/kg, ip measured after 48 hrs; type: functional
[37] = Toxicity in BALB/c mouse model of Sepsis infected with methicillin-resistant Staphylococcus aureus M11 assessed as survival rate at 30 mg/kg, ip measured after 7 days; type: organism-based; conditions: in vivo, 168 h, time 7 day

| SMILES | MIC (Staphylococcus aureus [1]) [µg/mL] | MIC (Staphylococcus aureus [2]) [µg/mL] | MIC (Staphylococcus aureus [3]) [µg/mL] | MIC (Staphylococcus aureus [4]) [µg/mL] | MIC (Escherichia coli) [µg/mL] | HC50 [5] [µg/mL] | Activity (Staphylococcus aureus [6]) | Activity (Staphylococcus aureus [7]) | viability at 24 h, 32 times MIC [8] [%] | Activity [9] | MTD at 168 h [14] [mg/kg] | Activity (Staphylococcus aureus [15]) | Activity (Staphylococcus aureus [16]) [%] | Activity [17] | Activity [18] | Activity [19] | Activity [20] | Activity (Staphylococcus aureus [21]) | Activity (Staphylococcus aureus [22]) | fold change (FC) (Staphylococcus aureus [23]) | also measured |
| --- | --- | --- | --- | --- | --- | --- | --- | --- | --- | --- | --- | --- | --- | --- | --- | --- | --- | --- | --- | --- | --- |
| CCCCCNC(=O)C[n+]1ccc(SCCCCCOc2ccc3ccc(=O)oc3c2CC=C(C)C)cc1.[Br-] | 1 | 1 | 0.5 | 0.5 | > 128 | > 160 | Active | inactive | > 80 | Non-toxic | 10 | Active | 99.985 | Non-toxic | Non-toxic | Non-toxic | Non-toxic | Dose-dependent-effect; Activity Was Observed Higher Than Melittin | Dose-dependent-effect | ~2 | Activity [10]: Non-toxic; Activity [11]: Non-toxic; Activity [12]: Non-toxic; mortality at 168 h [13]: 83.3%; fold change (FC) (Staphylococcus aureus [24]): ~4; Activity (Staphylococcus aureus [25]): Dose-dependent-effect; Activity (Staphylococcus aureus [26]): Active; Compound Showed Only Minor Or No Change In Mic; Activity (Staphylococcus aureus [27]): Active; Compound Showed Only Minor Or No Change In Mic; MIC (Staphylococcus aureus [28]): 1 µg/mL; MIC (Staphylococcus aureus [29]): 1 µg/mL; fold change (FC) (Staphylococcus aureus [30]): 32 |
| CC(C)=CCc1c(OCCCCSc2cc[n+](CC(=O)N(CC(C)C)CC(C)C)cc2)ccc2ccc(=O)oc12.[Br-] | 0.5 | 1 | 0.5 | 0.5 | > 128 | > 160 | Active | inactive | > 80 | Non-toxic | 30 | Active | 99.994 | Non-toxic | Non-toxic | Non-toxic | Non-toxic | Dose-dependent-effect; Activity Was Observed Higher Than Melittin | Dose-dependent-effect | ~2 | Activity [31]: Non-toxic; Activity [32]: Non-toxic; mortality at 168 h [33]: 83.3%; Activity (Staphylococcus aureus [34]): Active; Improvement Was Comparable To That In Vancomycin Group; Activity (Staphylococcus aureus [35]): 1.84 log10CFU/ml; Activity (Staphylococcus aureus [36]): 4.24 log10CFU/ml; Survival [37]: 100%; fold change (FC) (Staphylococcus aureus [24]): ~4; Activity (Staphylococcus aureus [25]): Dose-dependent-effect; Activity (Staphylococcus aureus [26]): Active; Compound Showed Only Minor Or No Change In Mic; Activity (Staphylococcus aureus [27]): Active; Compound Showed Only Minor Or No Change In Mic; MIC (Staphylococcus aureus [28]): 1 µg/mL; MIC (Staphylococcus aureus [29]): 1 µg/mL; fold change (FC) (Staphylococcus aureus [30]): 32 |
